Some results are limits rather than exact numbers.

For the experiment, the system named is MDA-MB-361. As to the kind of experiment: MDA-MB-361 proliferation. The experiment is classed as cell-based. Conditions: Homo sapiens; in vitro IC50, MDA-MB-361 cells. The protocol: The ability of one or more subject compounds to inhibit tumor cell line proliferation is determined according to standard procedures known in the art. For instance, an in vitro cellular proliferation assay can be performed to measure the metabolic activity of live cells. The assay is performed in a 96 well microtiter plate using Alamar Blue reduction. Human tumor cell lines are obtained from ATCC (e.g., MCF7, U-87 MG, MDA-MB-468, PC-3), grown to confluency in T75 flasks, trypsinized with 0.25% trypsin, washed one time with Tumor Cell Media (DMEM+10% FBS), and plated in 90 ul at 5,000 cells/well in Tumor Cell Media. A compound disclosed herein is diluted in Tumor Cell Media and added in a 10 ul volume. Plates are incubated for 72 hours at 37 C and 5% CO2. A volume of 10 uL of Alamar Blue reagent is added to each well and plates are incubated for 3 hours at 37 C and 5% CO2. Alamar Blue fluoresce is read at 560 Ex/590 Em, and IC50 values are calculated using GraphPad Prism 5.
Cells comprising one or more mutations in PI3Kα, including but not limited to breast cancer cells (e.g., MDA-MB-361 and T47D), and cells comprising one or more mutations in PTEN including but not limited to prostate cancer cells (e.g., PC3), are typically grown in cell growth media such as DMEM supplemented with fetal bovine serum and/or antibiotics, and grown to confluency. Cells are then treated with various concentrations of test compound for about 2 hours and subsequently lysed in cell lysis buffer. Lysates are subjected to SDS-PAGE followed by Western blot analysis to detect downstream signaling markers, including but not limited to pAKT(S473), pAKT(T308), pS6, and p4E-BP1. Degree of proliferation (and proliferation inhibition) can also be measured for cells at various doses of compound of the present invention.
Consider `C[C@H]1CN(c2cnc3ccc(-c4ccc5oc(N)nc5c4)nc3n2)CCN1` [Compound 1], for which the IC50 is less than 10 µM.

Consider `Nc1nc2cc(-c3ccc4ncc(N5CCOCC5)nc4n3)ccc2o1` [Compound 2, 5-(3-morpholinopyrido[2,3-b]pyrazin-6-yl)benzo[d]oxazol-2-amine], for which the IC50 was less than 1 µM.

Consider `CN1CCN(c2cnc3ccc(-c4ccc5oc(N)nc5c4)nc3n2)CC1` [Compound 4], for which the IC50 was less than 10 µM.

In the case of `Nc1nc2cc(-c3ccc4ncc(N5CC(N6CCOCC6)C5)nc4n3)ccc2o1` [Compound 5], the IC50 was less than 10 µM.

`CCOC(=O)N1CCN(c2cnc3ccc(-c4ccc5oc(N)nc5c4)nc3n2)CC1` [Compound 6]: the IC50 was less than 1 µM.

Turning to `CS(=O)(=O)N1CCN(C2CN(c3cnc4ccc(-c5ccc6oc(N)nc6c5)nc4n3)C2)CC1` [Compound 8], the IC50 was less than 10 µM.

`CCOC(=O)N1CC=C(c2cnc3ccc(-c4ccc5oc(N)nc5c4)nc3n2)CC1` [Compound 9] gave an IC50 of less than 1 µM.

For the molecule `C[C@H]1CN(C2CN(c3cnc4ccc(-c5ccc6oc(N)nc6c5)nc4n3)C2)CCN1` [Compound 10], the IC50 is less than 10 µM.

Consider `C[C@@H]1CN(C2CN(c3cnc4ccc(-c5ccc6oc(N)nc6c5)nc4n3)C2)CCN1` [Compound 12], for which the IC50 is less than 10 µM.

Consider `Nc1nc2cc(-c3ccc4ncc(N5CCC(F)(F)CC5)nc4n3)ccc2o1` [Compound 13], for which the IC50 is less than 10 µM.

As to `C[C@@H]1COCCN1c1cnc2ccc(-c3ccc4oc(N)nc4c3)nc2n1` [Compound 14], the IC50 was less than 1 µM.

Turning to `C[C@H]1COCCN1c1cnc2ccc(-c3ccc4oc(N)nc4c3)nc2n1` [Compound 15], the IC50 is less than 1 µM.

As to `Nc1nc2cc(-c3ccc4ncc(-c5cccnc5)cc4n3)ccc2o1` [Compound 16], the IC50 is more than 10 µM.

On to `C[C@H]1CN(C2CN(c3cnc4ccc(-c5ccc6oc(N)nc6c5)nc4n3)C2)CCN1C` [Compound 21], for which the IC50 is less than 10 µM.

`Nc1nc2cc(-c3ccc4ncc(N5CCOCC5)cc4n3)ccc2o1` [Compound 22] came in with an IC50 of less than 10 µM.

For `CN1CCN(c2cnc3ccc(-c4ccc5oc(N)nc5c4)nc3c2)CC1` [Compound 24], the IC50 was less than 10 µM.

`C[C@@H]1CN(C2CN(c3cnc4ccc(-c5ccc6oc(N)nc6c5)nc4n3)C2)CCN1C` [Compound 25] came in with an IC50 of less than 10 µM.

For the molecule `C[C@@H]1CN(c2cnc3ccc(-c4ccc5oc(N)nc5c4)nc3n2)CCN1` [Compound 27], the IC50 was less than 10 µM.

The molecule `Nc1nc2cc(-c3ccc4ncc(N5CCNC(=O)C5)nc4n3)ccc2o1` [Compound 29] gave an IC50 of less than 1 µM.

In turn, `C[C@@H](N)C(=O)N1CCN(c2cnc3ccc(-c4ccc5oc(N)nc5c4)nc3n2)CC1` [Compound 31] registered an IC50 of less than 10 µM.

Take `CC(C)N1CCN(c2cnc3ccc(-c4ccc5oc(N)nc5c4)nc3n2)CC1` [Compound 32]: the IC50 was less than 10 µM.

As for `NCC(=O)N1CCN(c2cnc3ccc(-c4ccc5oc(N)nc5c4)nc3n2)CC1` [Compound 33], the IC50 was more than 10 µM.

`Nc1nc2cc(-c3ccc4ncc(N5CC(N6CCNCC6)C5)nc4n3)ccc2o1` [Compound 34] came in with an IC50 of more than 10 µM.

In turn, `Nc1nc2cc(-c3ccc4ncc(N5CC(N6CCN(CC7CC7)CC6)C5)nc4n3)ccc2o1` [Compound 35] gave an IC50 of less than 10 µM.

`CCOC(=O)N1CCN(c2cnc3ccc(-c4ccc5oc(N)nc5c4)nc3c2)CC1` [Compound 36] registered an IC50 of less than 1 µM.

As for `NCC(=O)N1CCN(c2cnc3ccc(-c4ccc5oc(N)nc5c4)nc3c2)CC1` [Compound 37], the IC50 is less than 10 µM.

Regarding `C[C@H](N)C(=O)N1CCN(c2cnc3ccc(-c4ccc5oc(N)nc5c4)nc3c2)CC1` [Compound 38], the IC50 is less than 10 µM.

`C[C@@H](N)C(=O)N1CCN(c2cnc3ccc(-c4ccc5oc(N)nc5c4)nc3c2)CC1` [Compound 39]: the IC50 is less than 10 µM.

Regarding `CC(C)(N)C(=O)N1CCN(c2cnc3ccc(-c4ccc5oc(N)nc5c4)nc3n2)CC1` [Compound 40], the IC50 was less than 10 µM.

Take `Nc1nc2cc(-c3ccc4ncc(N5CCN(C(=O)C6(N)CC6)CC5)nc4n3)ccc2o1` [Compound 41]: the half-inhibitory concentration (IC50) is less than 10 µM.

Molecule `Nc1nc2cc(-c3ccc4ncc(N5CCN(C(=O)C6(N)CC6)CC5)cc4n3)ccc2o1` [Compound 42] showed an IC50 of less than 1 µM.

In the case of `CC(C)(N)C(=O)N1CCN(c2cnc3ccc(-c4ccc5oc(N)nc5c4)nc3c2)CC1` [Compound 43, 2-amino-1-(4-(6-(2-aminobenzo[d]oxazol-5-yl)-1,5-naphthyridin-3-yl)piperazin-1-yl)-2-methylpropan-1-one], the IC50 is less than 1 µM.

For the molecule `CC(C)N1CCN(c2cnc3ccc(-c4ccc5oc(N)nc5c4)nc3c2)CC1` [Compound 44], the IC50 is less than 10 µM.

In turn, `Nc1nc2cc(-c3ccc4ncc(N5CCC(O)CC5)nc4n3)ccc2o1` [Compound 45] had an IC50 of less than 1 µM.

Consider `Nc1nc2cc(-c3ccc4ncc(N5CC(N6CCN(CCO)CC6)C5)nc4n3)ccc2o1` [Compound 46], for which the IC50 was less than 10 µM.

For the molecule `C[C@H]1CN(c2cnc3ccc(-c4ccc5oc(N)nc5c4)nc3c2)CCN1` [Compound 47], the IC50 is less than 10 µM.

In turn, `C[C@@H]1CN(c2cnc3ccc(-c4ccc5oc(N)nc5c4)nc3c2)CCN1` [Compound 48] returned an IC50 of less than 10 µM.

Turning to `Cc1nccn1C1CN(c2cnc3ccc(-c4ccc5oc(N)nc5c4)nc3n2)C1` [Compound 50], the IC50 is less than 10 µM.

As to `CC1(C)CN(C2CN(c3cnc4ccc(-c5ccc6oc(N)nc6c5)nc4n3)C2)CCN1` [Compound 52], the half-inhibitory concentration (IC50) is less than 1 µM.

For `Nc1nc2cc(-c3ccc4ncc(N5CC(N6CCOCC6)C5)cc4n3)ccc2o1` [Compound 53], the IC50 was less than 10 µM.

Molecule `C[C@H]1CN(C2CN(c3cnc4ccc(-c5ccc6oc(N)nc6c5)nc4c3)C2)CCN1` [Compound 54] came in with an IC50 of less than 1 µM.

`C[C@H]1CN(C2CN(c3cnc4ccc(-c5ccc6oc(N)nc6c5)nc4c3)C2)CCN1C` [Compound 55] showed an IC50 of less than 1 µM.

Consider `C[C@@H]1CN(C2CN(c3cnc4ccc(-c5ccc6oc(N)nc6c5)nc4c3)C2)CCN1` [Compound 56], for which the IC50 is less than 1 µM.

`C[C@@H]1CN(C2CN(c3cnc4ccc(-c5ccc6oc(N)nc6c5)nc4c3)C2)CCN1C` [Compound 57] had an IC50 of less than 1 µM.

The molecule `CC1(C)CN(C2CN(c3cnc4ccc(-c5ccc6oc(N)nc6c5)nc4c3)C2)CCN1` [Compound 58] showed a concentration for half-maximal inhibition (IC50) of less than 1 µM.

Turning to `Nc1nc2cc(-c3ccc4ncc(N5CC(N6CCN(CC7CC7)CC6)C5)cc4n3)ccc2o1` [Compound 60], the IC50 is less than 1 µM.

As to `C[C@H]1COCCN1C1CN(c2cnc3ccc(-c4ccc5oc(N)nc5c4)nc3n2)C1` [Compound 61], the IC50 was more than 10 µM.

`Nc1nc2cc(-c3ccc4ncc(N5CCC(O)CC5)cc4n3)ccc2o1` [Compound 62] had an IC50 of less than 10 µM.

Regarding `Cc1nccn1C1CN(c2cnc3ccc(-c4ccc5oc(N)nc5c4)nc3c2)C1` [Compound 63], the IC50 is less than 10 µM.

Molecule `CN1CCN(C2CN(c3cnc4ccc(-c5ccc6oc(N)nc6c5)nc4c3)C2)CC1=O` [Compound 64] had an IC50 of less than 1 µM.

In turn, `Nc1nc2cc(-c3ccc4ncc(N5CC(N6CCN(CCO)CC6)C5)cc4n3)ccc2o1` [Compound 65] registered an IC50 of less than 1 µM.

As for `C[C@@H]1COCCN1C1CN(c2cnc3ccc(-c4ccc5oc(N)nc5c4)nc3c2)C1` [Compound 66], the IC50 was less than 10 µM.

The molecule `C[C@H]1COCCN1C1CN(c2cnc3ccc(-c4ccc5oc(N)nc5c4)nc3c2)C1` [Compound 68] came in with an IC50 of less than 10 µM.

The molecule `Nc1nc2cc(-c3ccc4ncc(N5CC(N6CCN(C7CC7)CC6)C5)nc4n3)ccc2o1` [Compound 69] displayed an IC50 of less than 10 µM.

With `Nc1nc2cc(-c3ccc4ncc(N5CC(N6CCN(C7CC7)CC6)C5)cc4n3)ccc2o1` [Compound 70], the IC50 is less than 10 µM.

The molecule `CN1CCN(C2CN(c3cnc4ccc(-c5ccc6oc(N)nc6c5)nc4n3)C2)CC1` [Compound 71] returned an IC50 of less than 10 µM.

With `CC(C)N1CCN(C2CN(c3cnc4ccc(-c5ccc6oc(N)nc6c5)nc4c3)C2)CC1` [Compound 72, 5-(7-(3-(4-isopropylpiperazin-1-yl)azetidin-1-yl)-1,5-naphthyridin-2-yl)benzo[d]oxazol-2-amine], the IC50 is less than 1 µM.

For `CN1CCN(C2CN(c3cnc4ccc(-c5ccc6oc(N)nc6c5)nc4c3)C2)CC1` [Compound 74], the IC50 was less than 1 µM.

As for `CCN1CCN(C2CN(c3cnc4ccc(-c5ccc6oc(N)nc6c5)nc4c3)C2)CC1` [Compound 75], the IC50 is less than 1 µM.

`CN1CC2CN(c3cnc4ccc(-c5ccc6oc(N)nc6c5)nc4n3)CC2C1` (stereo not drawn) [Compound 78] came in with an IC50 of less than 10 µM.

The IC50 is the midpoint of a concentration-inhibition curve. A low value points to greater potency in that assay.

The record behind these values is US20140323721A1, “HETEROCYCLIC COMPOUNDS AND USES THEREOF” (INTELLIKINE, LLC, priority 2011, published 2014).
